Test results taken from patent EP0387762A2, “Medicament with positive inotropic activity, containing a synergistically active mixture consisting of a benzimidazole and a beta-blocker, its preparation and use” (Dr. Karl Thomae GmbH, priority 1989, dated 1990).

Assays:
[1] = Acute toxicity, p.o., mouse; settings: in vivo, po, Maus, read-out: LD₅₀ p.o.
Source text: (§1) Die erfindungsgemäß einsetzten Verbindungen sind gut verträglich. So weist beispielsweise die Verbindung A folgende akute Toxizitäten auf: […]

[2] = Acute toxicity, i.v., rat; settings: in vivo, iv, Ratte, read-out: LD₅₀ i.v.
Source text: as §1

Structure (SMILES) | LD50 [1] [mg/kg] | LD50 [2] [mg/kg]
COc1ccc(-c2nc3ccc(C4=NNC(=O)CC4C)cc3[nH]2)cc1 (stereo not drawn) [Verbindung A, 2-(4-Methoxyphenyl)-5-(5-methyl-3-oxo-4,5-dihydro-2H-6-pyridazinyl)-benzimidazol] | 600 | 72
CC1CC(=O)NN=C1c1ccc2nc(-c3ccc(O)cc3)[nH]c2c1 (stereo not drawn) [Verbindung B, 2-(4-Hydroxyphenyl)-5-(5-methyl-3-oxo-4,5-dihydro-2H-6-pyridazinyl)-benzimidazol] | – | > 100
